One assay concerns the target PHKG2 (Homo sapiens, UniProt P15735). As to the kind of experiment: Kinase selectivity panel: PHKG2. Type of assay: biochemical.
The target of the next assay is MAPKAPK2 (Homo sapiens, UniProt P49137). As to the kind of experiment: Kinase selectivity panel: MAPKAPK2. Type of assay: biochemical.
For the next assay, the target named is G2019S LRRK2 (Homo sapiens, UniProt Q5S007, G2019S). As to the kind of experiment: DiscoveRx KINOMEscan binding constant (Kd). Further details: purchased DiscoveRx (KINOMEscan service); host or cells: E. coli BL21-derived host (T7 phage) or HEK-293. The note with it: numeric value. As to the method: Compounds of formulas (II), (I), (I-A), (I-B), (I-C), (I-D), (I-D-1), (I-D-2), (I-E), (I-F), (I-G), (I-H), (I-I), (I-I-1), (I-I-2), (I-J), (I-K), (I-L), (I-M), (I-N), (I-Z-1), (I-Z-2), (I-Z-2-a), (I-Z-2-b), (I-Z-2-c), (I-Z-2-d), (I-Z-3-a), (I-Z-3-b), (I-Z-3-c), or (I-Z-3-d) were tested using DiscoveRx's KINOMEscan™ technology to measure a binding constant (Kd) to wild type and G2019S LRRK2. Kinase-tagged T7 phage strains were prepared in an E. coli host derived from the BL21 strain. E. coli were grown to log-phase and infected with T7 phage and incubated with shaking at 32° C. until lysis. The lysates were centrifuged and filtered to remove cell debris. The remaining kinases were produced in HEK-293 cells and subsequently tagged with DNA for qPCR detection. Streptavidin-coated magnetic beads were treated with biotinylated small molecule ligands for 30 minutes at room temperature to generate affinity resins for kinase assays. The liganded beads were blocked with excess biotin and washed with blocking buffer (SeaBlock (Pierce), 1% BSA, 0.05% Tween 20, 1 mM DTT) to remove unbound ligand and to reduce non-specific binding. Binding reactions were assembled by combining kinases, liganded affinity beads, and test compounds in 1× binding buffer (20% SeaBlock, 0.17×PBS, 0.05% Tween 20, 6 mM DTT). All reactions were performed in polystyrene 96-well plates in a final volume of 0.135 ml. The assay plates were incubated at room temperature with shaking for 1 hour and the affinity beads were washed with wash buffer (lx PBS, 0.05% Tween 20). The beads were then re-suspended in elution buffer (lx PBS, 0.05% Tween 20, 0.5 μM non-biotinylated affinity ligand) and incubated at room temperature with shaking for 30 minutes. The kinase concentration in the eluates was measured by qPCR. An 11-point 3-fold serial dilution of each test compound was prepared in 100% DMSO at 100× final test concentration and subsequently diluted to 1× in the assay (final DMSO concentration=[…]). Most Kds were determined using a compound top concentration=30,000 nM.
G2019S LRRK2, sequence (Q5S007 whole entry G2019S): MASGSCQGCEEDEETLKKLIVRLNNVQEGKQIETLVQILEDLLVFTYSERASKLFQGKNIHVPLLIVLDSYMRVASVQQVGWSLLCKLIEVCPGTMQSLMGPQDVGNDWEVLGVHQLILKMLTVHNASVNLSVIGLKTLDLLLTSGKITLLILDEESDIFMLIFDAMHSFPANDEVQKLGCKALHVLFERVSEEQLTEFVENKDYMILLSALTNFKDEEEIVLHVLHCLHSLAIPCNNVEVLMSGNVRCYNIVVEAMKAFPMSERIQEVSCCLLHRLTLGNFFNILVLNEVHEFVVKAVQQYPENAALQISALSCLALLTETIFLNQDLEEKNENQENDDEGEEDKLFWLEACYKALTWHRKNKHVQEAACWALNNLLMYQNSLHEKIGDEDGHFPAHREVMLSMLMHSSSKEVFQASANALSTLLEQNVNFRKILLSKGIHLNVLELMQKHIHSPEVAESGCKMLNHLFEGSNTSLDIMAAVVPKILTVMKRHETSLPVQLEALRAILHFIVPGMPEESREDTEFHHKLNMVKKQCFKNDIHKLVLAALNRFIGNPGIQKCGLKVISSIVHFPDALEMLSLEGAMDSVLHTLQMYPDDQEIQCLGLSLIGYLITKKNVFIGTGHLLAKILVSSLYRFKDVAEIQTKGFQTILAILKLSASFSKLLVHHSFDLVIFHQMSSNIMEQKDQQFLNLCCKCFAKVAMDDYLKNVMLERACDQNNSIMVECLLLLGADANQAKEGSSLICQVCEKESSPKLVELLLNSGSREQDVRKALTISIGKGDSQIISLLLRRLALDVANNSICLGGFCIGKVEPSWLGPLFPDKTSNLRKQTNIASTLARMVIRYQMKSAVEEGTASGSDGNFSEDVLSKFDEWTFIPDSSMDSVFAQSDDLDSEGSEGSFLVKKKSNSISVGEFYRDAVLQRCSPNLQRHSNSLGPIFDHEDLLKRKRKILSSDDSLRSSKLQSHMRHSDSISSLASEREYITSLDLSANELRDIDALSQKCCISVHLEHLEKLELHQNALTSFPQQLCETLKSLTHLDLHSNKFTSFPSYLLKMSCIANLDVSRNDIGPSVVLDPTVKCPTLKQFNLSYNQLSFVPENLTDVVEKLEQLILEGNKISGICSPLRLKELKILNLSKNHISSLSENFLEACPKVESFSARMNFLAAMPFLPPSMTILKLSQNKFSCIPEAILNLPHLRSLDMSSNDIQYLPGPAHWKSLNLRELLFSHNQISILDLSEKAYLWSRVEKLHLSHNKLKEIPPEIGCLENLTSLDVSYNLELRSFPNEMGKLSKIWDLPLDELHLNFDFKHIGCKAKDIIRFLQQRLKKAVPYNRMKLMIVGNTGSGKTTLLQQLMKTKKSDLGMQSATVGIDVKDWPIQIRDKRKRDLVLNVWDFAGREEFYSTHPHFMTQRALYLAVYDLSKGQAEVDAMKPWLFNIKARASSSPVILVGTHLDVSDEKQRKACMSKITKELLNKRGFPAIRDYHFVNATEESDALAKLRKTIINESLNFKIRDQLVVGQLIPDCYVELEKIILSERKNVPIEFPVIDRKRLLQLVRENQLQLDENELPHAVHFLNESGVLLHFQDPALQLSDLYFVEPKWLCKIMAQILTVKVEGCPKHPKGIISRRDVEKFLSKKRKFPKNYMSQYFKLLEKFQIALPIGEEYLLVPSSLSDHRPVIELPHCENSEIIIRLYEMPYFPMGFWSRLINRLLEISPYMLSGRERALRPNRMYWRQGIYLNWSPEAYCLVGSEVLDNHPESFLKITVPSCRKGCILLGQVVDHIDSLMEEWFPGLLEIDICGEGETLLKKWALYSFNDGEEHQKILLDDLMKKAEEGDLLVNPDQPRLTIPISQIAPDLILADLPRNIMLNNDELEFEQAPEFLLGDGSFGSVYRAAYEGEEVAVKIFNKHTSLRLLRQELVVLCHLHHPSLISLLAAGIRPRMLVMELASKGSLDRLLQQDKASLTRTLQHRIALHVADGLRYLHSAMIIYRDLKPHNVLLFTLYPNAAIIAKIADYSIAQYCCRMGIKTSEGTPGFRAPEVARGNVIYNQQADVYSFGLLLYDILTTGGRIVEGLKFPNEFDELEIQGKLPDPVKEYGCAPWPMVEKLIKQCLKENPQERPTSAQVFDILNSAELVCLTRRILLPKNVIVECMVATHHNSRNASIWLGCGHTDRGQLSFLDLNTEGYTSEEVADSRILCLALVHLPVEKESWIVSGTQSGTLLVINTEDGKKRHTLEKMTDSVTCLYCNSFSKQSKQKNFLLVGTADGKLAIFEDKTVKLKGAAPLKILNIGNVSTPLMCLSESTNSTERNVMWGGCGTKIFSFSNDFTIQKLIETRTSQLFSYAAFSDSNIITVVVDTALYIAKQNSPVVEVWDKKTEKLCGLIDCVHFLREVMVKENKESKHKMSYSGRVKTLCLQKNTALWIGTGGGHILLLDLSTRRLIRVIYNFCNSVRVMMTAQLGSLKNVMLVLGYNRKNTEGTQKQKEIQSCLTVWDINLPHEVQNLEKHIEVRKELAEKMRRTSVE

Another assay addresses MEK1 (Homo sapiens, UniProt Q02750). As to the kind of experiment: Kinase selectivity panel: MEK1. The class given is biochemical.
The next assay deals with GSK3beta (Homo sapiens, UniProt P49841). As to the kind of experiment: Kinase selectivity panel: GSK3beta. The class given is biochemical.
Another assay concerns the target BTK (Homo sapiens, UniProt Q06187). As to the kind of experiment: Kinase selectivity panel: BTK. Type of assay: biochemical.
A further assay addresses P70S6K (Homo sapiens, UniProt P23443). As to the kind of experiment: Kinase selectivity panel: P70S6K. The class given is biochemical.
In the next assay the target is AMPK A1/B1/G1 (Homo sapiens, UniProt Q13131). As to the kind of experiment: Kinase selectivity panel: AMPK A1/B1/G1. Type of assay: biochemical.
The next assay deals with Tie2 (Homo sapiens, UniProt Q02763). As to the kind of experiment: Kinase selectivity panel: Tie2. Type of assay: biochemical.
A further assay addresses TAK1-TAB1 (Homo sapiens, UniProt O43318). As to the kind of experiment: Kinase selectivity panel: TAK1-TAB1. Type of assay: biochemical.
For a further assay, the target named is DYRK3 (Homo sapiens, UniProt O43781). As to the kind of experiment: Kinase selectivity panel: DYRK3. Type of assay: biochemical.
DYRK3, sequence (O43781 whole entry, species assumed): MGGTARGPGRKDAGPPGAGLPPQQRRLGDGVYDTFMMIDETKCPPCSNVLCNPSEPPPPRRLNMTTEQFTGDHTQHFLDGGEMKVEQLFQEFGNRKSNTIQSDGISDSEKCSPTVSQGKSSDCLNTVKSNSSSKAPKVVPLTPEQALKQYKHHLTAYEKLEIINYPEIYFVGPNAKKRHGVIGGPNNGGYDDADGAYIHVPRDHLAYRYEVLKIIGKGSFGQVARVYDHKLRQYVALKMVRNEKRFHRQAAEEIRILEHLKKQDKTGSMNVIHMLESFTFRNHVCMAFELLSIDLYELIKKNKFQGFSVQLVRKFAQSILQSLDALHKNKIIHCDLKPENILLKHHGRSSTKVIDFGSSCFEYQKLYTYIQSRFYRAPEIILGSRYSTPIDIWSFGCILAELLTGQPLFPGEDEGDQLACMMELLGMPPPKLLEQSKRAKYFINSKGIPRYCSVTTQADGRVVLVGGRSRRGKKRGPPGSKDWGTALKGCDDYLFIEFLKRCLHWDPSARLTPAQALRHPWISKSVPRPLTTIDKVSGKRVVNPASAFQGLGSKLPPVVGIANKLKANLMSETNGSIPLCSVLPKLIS
The next assay deals with TRKA (Homo sapiens, UniProt P04629). As to the kind of experiment: Kinase selectivity panel: TRKA. Type of assay: biochemical.
Another assay concerns the target EGFR (Homo sapiens, UniProt P00533). As to the kind of experiment: Kinase selectivity panel: EGFR. The class given is biochemical.
The target of another assay is PKC beta1 (Homo sapiens, UniProt P05771). As to the kind of experiment: Kinase selectivity panel: PKC beta1. The class given is biochemical.
Another assay has as its target CK1 gamma2 (Homo sapiens, UniProt P78368). As to the kind of experiment: Kinase selectivity panel: CK1 gamma2. The class given is biochemical.
For the next assay, the target named is CDK1/cyclinB (Homo sapiens, UniProt P06493). As to the kind of experiment: Kinase selectivity panel: CDK1/cyclinB. The class given is biochemical.
In a further assay the target is JAK3 (Homo sapiens, UniProt P52333). As to the kind of experiment: Kinase selectivity panel: JAK3. Type of assay: biochemical.
Another assay addresses ROCK1 (Homo sapiens, UniProt Q13464). As to the kind of experiment: Kinase selectivity panel: ROCK1. The class given is biochemical.
Another assay has as its target PKA (Homo sapiens, UniProt P17612). As to the kind of experiment: Kinase selectivity panel: PKA. Type of assay: biochemical.
In the next assay the target is RET (Homo sapiens, UniProt P07949). As to the kind of experiment: Kinase selectivity panel: RET. The class given is biochemical.
RET, sequence (P07949 29-1114, species assumed): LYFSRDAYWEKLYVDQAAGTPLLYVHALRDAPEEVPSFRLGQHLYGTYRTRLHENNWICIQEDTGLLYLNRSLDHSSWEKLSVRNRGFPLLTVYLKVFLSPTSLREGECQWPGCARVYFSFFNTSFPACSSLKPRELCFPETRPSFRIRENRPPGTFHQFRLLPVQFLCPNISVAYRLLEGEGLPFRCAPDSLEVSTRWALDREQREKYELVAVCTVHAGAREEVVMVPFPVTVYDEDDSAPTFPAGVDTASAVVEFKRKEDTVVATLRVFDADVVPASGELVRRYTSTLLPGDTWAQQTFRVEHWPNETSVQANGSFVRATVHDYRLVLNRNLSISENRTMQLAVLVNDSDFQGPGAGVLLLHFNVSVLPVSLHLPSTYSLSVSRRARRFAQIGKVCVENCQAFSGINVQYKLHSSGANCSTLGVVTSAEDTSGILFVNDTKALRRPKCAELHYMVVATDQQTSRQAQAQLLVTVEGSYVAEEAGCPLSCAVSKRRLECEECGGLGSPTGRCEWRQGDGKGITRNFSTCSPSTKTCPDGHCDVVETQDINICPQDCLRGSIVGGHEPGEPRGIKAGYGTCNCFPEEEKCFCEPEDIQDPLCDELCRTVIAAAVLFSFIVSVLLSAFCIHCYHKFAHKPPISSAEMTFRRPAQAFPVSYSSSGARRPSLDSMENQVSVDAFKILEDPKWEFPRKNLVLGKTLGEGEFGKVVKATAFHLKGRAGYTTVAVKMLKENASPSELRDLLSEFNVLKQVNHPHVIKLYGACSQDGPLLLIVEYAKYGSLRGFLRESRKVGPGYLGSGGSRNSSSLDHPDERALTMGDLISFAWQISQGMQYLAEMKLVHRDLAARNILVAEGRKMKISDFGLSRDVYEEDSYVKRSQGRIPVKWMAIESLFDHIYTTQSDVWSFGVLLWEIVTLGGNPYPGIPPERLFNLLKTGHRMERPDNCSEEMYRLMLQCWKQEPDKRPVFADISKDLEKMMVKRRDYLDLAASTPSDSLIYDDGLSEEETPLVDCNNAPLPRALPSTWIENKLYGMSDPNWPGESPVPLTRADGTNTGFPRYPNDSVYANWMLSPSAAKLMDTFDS
The target in a further assay is T1, AURKA (Homo sapiens, UniProt O14965).
T1 sequence (O14965 1-403): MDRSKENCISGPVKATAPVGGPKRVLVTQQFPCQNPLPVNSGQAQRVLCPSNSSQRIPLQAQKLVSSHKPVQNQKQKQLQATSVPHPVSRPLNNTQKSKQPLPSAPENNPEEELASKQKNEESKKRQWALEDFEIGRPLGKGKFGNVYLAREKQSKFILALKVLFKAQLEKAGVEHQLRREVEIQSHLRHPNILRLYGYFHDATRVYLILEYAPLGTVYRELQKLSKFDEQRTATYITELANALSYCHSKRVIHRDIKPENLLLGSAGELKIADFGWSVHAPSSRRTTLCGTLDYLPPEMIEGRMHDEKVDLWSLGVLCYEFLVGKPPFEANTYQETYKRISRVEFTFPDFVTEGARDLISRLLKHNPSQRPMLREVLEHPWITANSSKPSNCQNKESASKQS
As to the kind of experiment: Kinase selectivity panel: AURKA. The class given is biochemical.

In another assay the target is HER2 (Homo sapiens, UniProt P04626). As to the kind of experiment: Kinase selectivity panel: HER2. Type of assay: biochemical.

One may read the inhibition as the drop in the measured response relative to a control, in per cent. The Kd is the free concentration of one partner at which half of the binding sites on the other are occupied at equilibrium, for simple one-to-one binding. A word on the IC50: it is the concentration that gives 50% inhibition. Read a high IC50 as weaker potency.

Molecules are shown by their SMILES. Where only a bound is given, the exact number is not on record here.

PHKG2, sequence (P15735 whole entry, species assumed): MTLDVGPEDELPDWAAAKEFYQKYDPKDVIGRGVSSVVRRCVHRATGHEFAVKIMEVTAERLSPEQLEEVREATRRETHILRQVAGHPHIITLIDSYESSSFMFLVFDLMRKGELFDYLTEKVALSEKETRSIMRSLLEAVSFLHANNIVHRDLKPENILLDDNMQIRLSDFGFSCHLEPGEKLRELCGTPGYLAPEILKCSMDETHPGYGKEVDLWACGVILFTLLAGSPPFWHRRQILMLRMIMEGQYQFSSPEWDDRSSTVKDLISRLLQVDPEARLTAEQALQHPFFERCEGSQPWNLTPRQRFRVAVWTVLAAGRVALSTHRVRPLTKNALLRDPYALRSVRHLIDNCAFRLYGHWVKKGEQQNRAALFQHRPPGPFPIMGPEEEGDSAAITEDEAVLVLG
TAK1-TAB1, sequence (O43318 1-303 limits assumed): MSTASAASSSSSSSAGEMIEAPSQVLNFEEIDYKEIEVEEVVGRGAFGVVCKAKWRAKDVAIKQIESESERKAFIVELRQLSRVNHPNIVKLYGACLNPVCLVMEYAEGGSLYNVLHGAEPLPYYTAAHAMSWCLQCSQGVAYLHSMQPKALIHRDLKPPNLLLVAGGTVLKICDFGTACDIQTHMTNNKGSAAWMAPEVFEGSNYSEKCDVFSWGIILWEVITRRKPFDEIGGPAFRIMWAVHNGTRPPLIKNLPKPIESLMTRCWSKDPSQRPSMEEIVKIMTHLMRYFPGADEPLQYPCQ
TAK1-TAB1, sequence (Q15750 437-504 partner limits assumed): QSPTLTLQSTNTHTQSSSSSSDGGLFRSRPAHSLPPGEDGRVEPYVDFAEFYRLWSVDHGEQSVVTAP

Consider `COc1ccc2c(c1)/C(=C/c1cnc(C3CCOCC3)[nH]1)C(=O)N2` [Compound 18, (3Z)-5-methoxy-3-[(2-tetrahydropyran-4-yl-1H-imidazol-5-yl)methylene]indolin-2-one], for which the inhibition at 0.1 µM came to 3% at PHKG2; 4% against MAPKAPK2; 16% against MEK1; 0% against GSK3beta; 4% against BTK; 5% against P70S6K. Also, the inhibition at 0.1 µM against AMPK A1/B1/G1 is -1%; against Tie2, -2%; against TAK1-TAB1, -3%; against DYRK3, 2%; at TRKA, 11%; at EGFR, -3%. In addition, the inhibition at 0.1 µM turned out to be 4% on PKC beta1; 6% against CK1 gamma2; 0% at CDK1/cyclinB; 2% on JAK3; 1% on ROCK1; 2% at PKA. In addition, the inhibition at 0.1 µM was 3% against RET, -1% against AURKA (@0.1 uM) and 4% against HER2. The Kd at G2019S LRRK2 is 95 nM. Also, the IC50 on AURKA is greater than 10000 nM.
